The text below walks through data of patent US20080287375A1, “Selective Glycosidase Inhibitors, Methods of Making Inhibitors, and Uses Thereof” (SIMON FRASER UNIVERSITY, priority 2005, published 2008).

A value given as a limit tells only on which side of the number the result lay.

The test system of data set [1] is O-GlcNAc modified proteins in rat tissues. Nature of the data set: Western blot of O-GlcNAc modified proteins in tissues of rats after tail vein injection of varying doses. The class given is in vivo. As for the experimental part:
Four rats were treated by tail vein injection of different doses of inhibitor 9c or a buffer control. Two sequential injections were performed approximately 18 hours apart and the rats were then sacrificed 24 hours after the first injection. Western blot analyses using an α-O-GlcNAc antibody (CTD110.6) clearly indicate that the inhibitor 9c easily gains access into a variety of tissues including brain (A), muscle (B) and liver (C) and doses as low as 50 mg kg-1 are almost enough to elicit a maximal increase in O-GlcNAc levels.
Eight give-week old healthy Sprague-Dawley rats (Charles River) were caged in pairs. The animals were allowed to acclimatize to their new surroundings at the Simon Fraser University Animal Care Facilities (SFU ACF) for one week. At 3:00 pm, four rats were given a tail vein injection of 400 μl of inhibitor 9c dissolved in PBS buffer (pH 7.4) at a dose of 50 mg kg^−1. The remaining four rats were given a tail vein injection of 400 μl of PBS as a control. All solutions were pre-sterilized through a 0.2 μm filter (Millipore) and injected with 0.5 mL syringes containing a 28 gauge×0.5″ needle (Terumo) as bolus over 10 seconds. Food was withdrawn at approximately 11:00 pm. At 8:30 am the following morning, the rats were given a second injection. After three hours the rats were anesthetized with isoflurane and a 100 μL blood sample was taken from the jugular vein to measure the fasting blood glucose levels. An intravenous glucose tolerance test (IVGTT) was then performed. A 0.5 mL injection of a 50% w/v solution of glucose dissolved in PBS (pre-sterilized) was administered via the tail vein over 30 seconds. At 10, 20, 30, 40, 60, and 90 minutes after the injection of glucose, a 100 μL sample of blood was taken from the jugular vein. Immediately following blood sampling, a small aliquot of the blood was used to measure the blood glucose concentration using a glucometer (Accu-Check Advantage, Roche) and the remaining blood was stored on ice for 20 minutes and spun down to isolate the serum. Following completion of the IVGTT, the rats were sacrificed with 1:1 mixture of CO2/O2. Tissue samples (brain, muscle, liver, spleen, pancreas, fat) were immediately harvested and flash frozen with liquid nitrogen and stored at −80° C. To homogenize the tissues to obtain a cell extract, tissue were kept frozen while they were ground with a mortal and pestle into a fine powder. 100 mg of the powder was then homogenized in 1 mL of cold lysis buffer (50 mM Tris, 0.5% sodium deoxycholate, 0.1% SDS, 1% nonidet P-40, 1 mM EDTA, 1 mM PMSF, and 1 mM butyl-NAG-thiazoline) using two 10 second pulse on a Jenke and Kunkel Ultra-Turrax tissue homogenizer tissue homogenizer. Tissues were then spun down at 13,000 rpm in a microcentrifuge (eppendrof) to remove the cell debris. The soluble cell extract was then analyzed for levels O-GlcNAc modified proteins using Western blot analysis as described above for the cell studies.
A general note: In western blotting, separated proteins are transferred to a membrane and probed.

The nature of data set [2]: Intravenous glucose tolerance test (IVGTT) in rats. The data set is classed as in vivo, rat. As to conditions: 50 mg kg^−1 tail vein. As for the experimental part:
Eight give-week old healthy Sprague-Dawley rats (Charles River) were caged in pairs. The animals were allowed to acclimatize to their new surroundings at the Simon Fraser University Animal Care Facilities (SFU ACF) for one week. At 3:00 pm, four rats were given a tail vein injection of 400 μl of inhibitor 9c dissolved in PBS buffer (pH 7.4) at a dose of 50 mg kg^−1. The remaining four rats were given a tail vein injection of 400 μl of PBS as a control. All solutions were pre-sterilized through a 0.2 μm filter (Millipore) and injected with 0.5 mL syringes containing a 28 gauge×0.5″ needle (Terumo) as bolus over 10 seconds. Food was withdrawn at approximately 11:00 pm. At 8:30 am the following morning, the rats were given a second injection. After three hours the rats were anesthetized with isoflurane and a 100 μL blood sample was taken from the jugular vein to measure the fasting blood glucose levels. An intravenous glucose tolerance test (IVGTT) was then performed. A 0.5 mL injection of a 50% w/v solution of glucose dissolved in PBS (pre-sterilized) was administered via the tail vein over 30 seconds. At 10, 20, 30, 40, 60, and 90 minutes after the injection of glucose, a 100 μL sample of blood was taken from the jugular vein. […] The soluble cell extract was then analyzed for levels O-GlcNAc modified proteins using Western blot analysis as described above for the cell studies.

Data set [3] concerns O-GlcNAc modified proteins in rat tissues. Nature of the data set: Clearance rate: time course of tissue O-GlcNAc levels in rats after tail vein injection. The data set is classed as in vivo. As to conditions: 50 mg kg^−1 tail vein. As for the experimental part: To obtain information for how rapid the inhibitor is cleared from tissues, five 10-week old Sprague-Dawley rats were given a tail vein injection of the inhibitor (50 mg kg^−1). The animals were sacrificed sequentially 3, 7, 24, 27, and 32 hours following the injection. Two additional rats were used as controls. One rat was sacrificed immediately before the others received their injections in order to obtain information about the normal levels of O-GlcNAc modified proteins. Also, one rat was injected with sterilized PBS (pH 7.4) along with the other rats and sacrificed at the end of the experiment (32 hours). Tissue collection, homogenization, and western blot analyses were done in the same matter as described above.

For a further data set, the target named is T1, O-GlcNAcase (Homo sapiens, UniProt O60502).
T1 sequence (O60502 1-916): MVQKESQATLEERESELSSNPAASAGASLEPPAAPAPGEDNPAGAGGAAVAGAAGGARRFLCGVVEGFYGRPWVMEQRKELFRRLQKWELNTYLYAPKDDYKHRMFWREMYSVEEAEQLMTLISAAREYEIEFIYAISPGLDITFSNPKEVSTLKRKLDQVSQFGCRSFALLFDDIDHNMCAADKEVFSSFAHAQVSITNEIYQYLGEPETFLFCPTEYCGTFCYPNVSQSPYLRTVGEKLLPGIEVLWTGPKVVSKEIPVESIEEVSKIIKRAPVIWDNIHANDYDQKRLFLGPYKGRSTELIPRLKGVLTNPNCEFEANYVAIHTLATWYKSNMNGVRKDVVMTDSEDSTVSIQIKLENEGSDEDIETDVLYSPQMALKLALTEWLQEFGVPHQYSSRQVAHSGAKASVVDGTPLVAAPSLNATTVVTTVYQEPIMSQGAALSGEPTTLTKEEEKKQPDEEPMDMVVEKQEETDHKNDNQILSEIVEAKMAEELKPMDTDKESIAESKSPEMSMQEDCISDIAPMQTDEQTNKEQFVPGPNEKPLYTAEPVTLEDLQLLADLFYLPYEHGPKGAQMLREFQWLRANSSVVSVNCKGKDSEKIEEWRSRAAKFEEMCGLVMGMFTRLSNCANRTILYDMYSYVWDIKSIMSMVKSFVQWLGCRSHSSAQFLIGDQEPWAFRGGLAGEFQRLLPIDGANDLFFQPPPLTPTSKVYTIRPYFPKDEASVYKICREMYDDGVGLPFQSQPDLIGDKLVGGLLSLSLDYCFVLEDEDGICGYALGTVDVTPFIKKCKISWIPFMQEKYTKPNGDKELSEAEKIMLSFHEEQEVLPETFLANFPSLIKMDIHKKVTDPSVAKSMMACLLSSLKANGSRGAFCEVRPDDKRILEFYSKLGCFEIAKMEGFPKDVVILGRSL

In the case of `CCCC1=N[C@@H]2[C@@H](O)[C@H](O)[C@@H](CO)O[C@@H]2S1` [Compound 9c, 1,2-dideoxy-2′-propyl-α-D-glucopyranoso-[2,1-d]-2′-thiazoline], in data set [1] (tail vein injection), the “discomforts of treated rats compared to the control rat” value is given as “did not appear to show any discomforts”, the “dose enough to elicit the maximal increase in O-GlcNAc modified proteins” value is 50 mg/kg, the “time for which the inhibitor retains an effect” value was ≥ 6 h and the “time in which the inhibitor gains access to a wide variety of tissues” value was “less than 24 hours”. In addition, in data set [1] (tail vein injection, 50, 120 and 300 mg/kg, compared to controls), the “cellular levels of O-GlcNAc modified proteins in brain tissue” value is reported as “marked increases”. The “dose almost enough to elicit a maximal increase in O-GlcNAc levels” value in data set [1] (tail vein injection, brain, muscle, liver) was ~50 mg/kg. For the same compound, the “levels of O-GlcNAc modified proteins in rats of the IVGTT” value in data set [2] (Western blot) was “increased levels”. Also, the “glucose clearance rate in IVGTT” value in data set [2] (short term exposure (<24 hours), 1 g kg^−1 glucose challenge) is “does not affect the glucose clearance rate”. In data set [3], the “cellular levels of O-GlcNAc modified proteins in brain, 24 hours after injection” value is listed as “dropped”; the “cellular levels of O-GlcNAc modified proteins in brain, seven hours after injection” value was “remained high”; the “cellular levels of O-GlcNAc modified proteins in brain, three hours after injection” value is “marked increases”. Further, the “time after which O-GlcNAc levels return to normal levels” value in data set [3] (brain) was “about 32 hours”. In addition, in data set [3] (brain and muscle), the “time to elevate O-GlcNAc levels in tissues” value is < 3 h; the “time within which the inhibitor is cleared from the tissues and O-GlcNAc levels return to normal” value fell in the range of 24 to 32 h. Also, at O-GlcNAcase, the “KI for O-GlcNAcase greater than that of parent compound (9a)” value is 3 fold; the “inhibition of O-GlcNAcase, in words” value is on record as “potent inhibitors”; the “selectivity for O-GlcNAcase over β-hexosaminidase, in words” value was “remarkable selectivity”; the “selectivity ratio for O-GlcNAcase over β-hexosaminidase” value was determined as 1500 fold. For the same compound, on O-GlcNAcase (Table 2), the “Selectivity Ratio (β-Hex KI/O-GlcNAcase KI)” value was 1500.
